Structures can show the parent of a compound that is named as a salt. Where two headings read alike, the source gives them in different places.
What was measured:
[1] = tested on: artificial intestinal tract formed from an intestinal organoid; experiment: Organ bath assay: contractile and relaxant responses of artificial intestinal tract to electrical stimulation; set-up: species or system human
vagal neural crest cells = experiment: Study on composition of enteric neural precursor medium (NRG1 and/or GDNF not added); format: cell-based, human; settings: for cell proliferation: enteric neural precursor medium without the named factor (factor-free conditions)
Experimental: The medium was aspirated and replaced with PBS. Then, the cells were detached using a cell scraper. The detached cell mass was dissociated by pipetting in Accutase® (Innovative Cell Technologies, Inc.). Then, MACS® Buffer (Miltenyi Biotec) was added thereto, and the cells were prepared into single cells through a 40 µm cell strainer. The obtained cell suspension was centrifuged at 300×g for 3 minutes. Then, the supernatant was removed, and the cells were suspended in an enteric neural precursor medium. The enteric neural precursor medium used was a mixture of solutions A and B of Stem Fit® AK03N containing 10 μM SB431542 (FUJIFILM Wako Pure Chemical Corp.), 1 μM CHIR99021 (Axon MedChem), 1 μM retinoic acid (FUJIFILM Wako Pure Chemical Corp.), 100 ng/mL neuregulin 1 (NRG1) (PeproTech, Inc.) and […] glial cell-derived neurotrophic factor (GDNF) (FUJIFILM Wako Pure Chemical Corp.). For adherent culture, Matrigel® (Corning Inc.) was added at 2% to the cell suspension, which was then cultured using a multiwell plate (Corning Inc.). For suspension culture, a multiwell plate (Corning Inc.) treated for low cell adhesion was used. The culture in both cases was carried out at 37° C. under 5% CO2.
Vagal neural crest cells were cultured in an enteric neural precursor medium under the same conditions as in Test Example 4 except that NRG1 and/or GDNF was not added to the enteric neural precursor medium. The cells were observed under a fluorescence microscope (BZ-X700, Keyence Corp.). Also, flow cytometry analysis was conducted by the same method as in Test Example 5.

In the case of `CC(C)NCC(O)COc1cccc2ccccc12` (centres unmarked) [propranolol hydrochloride], the “contractile response to electrical stimulation” value ([1]; addition of 10 μM, strip of artificial intestinal tract in Krebs solution) is reported as “partially canceled”.

In the case of `CC(COc1ccccc1)N(CCCl)Cc1ccccc1` (centres unmarked) [phenoxybenzamine hydrochloride], the “contractile response to electrical stimulation” value [1] is reported as “partially canceled”.

`CN1[C@@H]2CC[C@H]1C[C@@H](OC(=O)C(CO)c1ccccc1)C2` (some centres unmarked) [atropine sulfate monohydrate] was tested, and the “contractile response to electrical stimulation” value [1] was “partially canceled”.

With `NC1=N[C@H](O)[C@H]2[C@H]3O[C@]4(O)O[C@@H]([C@@H](O)[C@@]2(N1)[C@@H]4O)[C@]3(O)CO` [tetrodotoxin] the “cancelation of the contractile response by atropine, phenoxybenzamine or propranolol” value [1] was “disappeared”.

`COC(=O)[C@@H](N)CCCN=C(N)N[N+](=O)[O-].Cl` [NG-nitro-L-arginine methyl ester hydrochloride] was tested, and the “relaxant response dependent on electrical stimulation” value ([1]; after atropine, phenoxybenzamine, propranolol, concentration not given) was “disappeared”.

B1: GDNF: factor encoded by GDNF gene; acts as an agonist of GFRα1 and RET (protein, UniProt P39905 78-211, looked up)
Glial cell line-derived …: SPDKQMAVLPRRERNRQAAAANPENSRGKGRRGQRGKNRGCVLTAIHLNVTDLGLGYETKEELIFRYCSGSCDAAETTYDKILKNLSRNRRLVSDKVGQACCRPIAFDDDLSFLDDNLVYHILRKHSAKRCGCI
In the case of B1, the cell proliferation (vagal neural crest cells) is reported as “slower than that under the conditions involving GDNF”.

B2: NRG1: EGF-like growth factor encoded by NRG1 gene; activates downstream signaling by binding to ERBB3 and ERBB4 (protein, listed as Homo sapiens)
chain: MSERKEGRGKGKGKKKERGSGKKPESAAGSQSPALPPRLKEMKSQESAAGSKLVLRCETSSEYSSLRFKWFKNGNELNRKNKPQNIKIQKKPGKSELRINKASLADSGEYMCKVISKLGNDSASANITIVESNEIITGMPASTEGAYVSSESPIRISVSTEGANTSSSTSTSTTGTSHLVKCAEKEKTFCVNGGECFMVKDLSNPSRYLCKCPNEFTGDRCQNYVMASFYKHLGIEFMEAEELYQKRVLTITGICIALLVVGIMCVVAYCKTKKQRKKLHDRLRQSLRSERNNMMNIANGPHHPNPPPENVQLVNQYVSKNVISSEHIVEREAETSFSTSHYTSTAHHSTTVTQTPSHSWSNGHTESILSESHSVIVMSSVENSRHSSPTGGPRGRLNGTGGPRECNSFLRHARETPDSYRDSPHSERYVSAMTTPARMSPVDFHTPSSPKSPPSEMSPPVSSMTVSMPSMAVSPFMEEERPLLLVTPPRLREKKFDHHPQQFSSFHHNPAHDSNSLPASPLRIVEDEEYETTQEYEPAQEPVKKLANSRRAKRTKPNGHIANRLEVDSNTSSQSSNSESETEDERVGEDTPFLGIQNPLAASLEATPAFRLADSRTNPAGRFSTQEEIQARLSSVIANQDPIAV
For B2, the “cell number necessary for conducting flow cytometry” value (vagal neural crest cells; enteric neural precursor medium without the named factor) was “not obtained” and the cell proliferation (vagal neural crest cells) was “very slow”.

Reference: patent US12516288B2, “Method for producing enteric neural precursors” (Kyoto University, priority 2018, dated 2026)
